Experimental data: patent publication US20050079151A1, “Therapeutic agents for apoptosis-related diseases” (priority 1998, published 2005)
Where two headings read alike, the source gives them in different places.

How the values were obtained:
[1] = tested on: hippocampal neurocytes; conditions: cited from earlier work
[2] = tested on: Bcl-2; assay: Effect for enhancing Bcl-2 expression (Western blotting); type: cell-based; conditions: G401 cells, MK 100 ng/ml, no cisplatin
Description: The effect of MK on the expression of the Bcl-2 gene was examined. Six groups were prepared; the untreated group, the cisplatin (100 μM) treated group, the human MK (100 ng/ml) treated group, the human MK (100 ng/ml)+cisplatin (100 μM) group, the mouse MK (100 ng/ml) treated group, and the mouse MK (100 ng/ml)+cisplatin (100 μM) treated group.
G401 cells were seeded on a 3.5 cm-dish and cultured in 10% FBS/DMEM until the cells became almost confluent. The cells were washed twice and cultured in 0.1% FBS/DMEM overnight. Then, human MK or mouse MK (JP-A No. Hei 8-196293) was added to the MK treatment groups at 100 ng/ml and cultured for six hours. Cisplatin was added to the cisplatin treatment group to 100 μM, and cultured for 2 hours. After culturing, the cells were washed with 0.1% FBS/DMEM three times, cultured in 0.1% FBS/DMEM for 10 hours, and washed with PBS three times.
Two hundred microliters of buffer [1% Triton X-100, 150 mM NaCl, 10 mM Tris (pH 7.4), 1.0 mM EGTA, 0.5% NP-40, 1 mM PMSF, 0.1 μg/ml apiotinin, 40 nM Iewpeptin] were added to each dish and kept on ice for 20 min. The cells in each dish were detached by a scraper, and mixed 8 to 10 times using a syringe with a 26-gauge needle. The cells of each dish were centrifuged in a centrifuge tube at 4° C. at 12000 rpm for 30 min. The precipitated proteins were quantified (BCA Kit; PIERCE). The precipitate prepared from each dish (50 μg) was analyzed by Western blotting using anti-Bcl-2 monoclonal antibody (500×) (Dako; Denmark) and anti-mouse HRP antibody (Jackson Immuno Research) (FIG. 6). The band in each lane is numerically shown (FIG. 7).

**Q.** For “NGF: neurotrophic factor reported in the literature to ameliorate delayed neuronal death”, which “rescuing hippocampal neurocytes from delayed neuronal death” value ([1]; 28 days after the injury (Ishimura et al. 1998)) is on record?
**A.** The value was “not effective”.

**Q.** What about the “dosage required for protection from delayed neuronal death” value ([1]; intraventricular injection (Shigeno et al. 1991)) of the same molecule?
**A.** The value was 10 µg.

**Q.** And the “rescuing hippocampal neurocytes from delayed neuronal death” value ([1]; seven days after development of the ischemic injury (Ishimura et al. 1998))?
**A.** Its value is “effective”.

B1: mouse MK: mouse MK (JP-A No. Hei 8-196293) (protein, UniProt P12025 23-140, looked up)
Midkine: KKKEKVKKGSECSEWTWGPCTPSSKDCGMGFREGTCGAQTQRVHCKVPCNWKKEFGADCKYKFESWGACDGSTGTKARQGTLKKARYNAQCQETIRVTKPCTSKTKSKTKAKKGKGKD
**Q.** Which “expression of Bcl-2” value [2] does the source give for B1 here?
**A.** The value was “enhanced the expression of Bcl-2”.
